Among the test systems are A498 renal; DU-145 prostate; HOP-62 NSCLC; MOLT-4 leukemia; NCI/ADR-RES ovarian; OVCAR-3 ovarian; SNB-19 CNS; T-47D breast; UACC-257 melanoma; UACC-62 melanoma.
What all share (test): NCI-60 cell line screen, 48 h

Molecules are shown by their SMILES. Several values for one entry are separate records, joined by “and”; a condition that tells them apart may be missing. Identical values can stand only once.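 In this assay, cells in 96-well plates receive the compound at five concentrations for 48 hours. Endpoints are linearly interpolated between the surrounding concentrations. GI50: concentration for 50% inhibition of growth. TGI: total growth inhibition.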

With `Cc1nc(-c2cnc(NC(C)C)n(C)c2=O)ccc1Oc1ccnc(-c2cnn(C)c2)c1`, the GI50 with A498 renal was 4.8 µM; with DU-145 prostate, 33.2 µM; in the experiment with HOP-62 NSCLC, 12.7 µM; in the experiment with MOLT-4 leukemia, 5.16 µM; in the experiment on NCI/ADR-RES ovarian, 8.35 µM; with OVCAR-3 ovarian, 16.1 µM. In addition, the GI50 is 25.2 µM with SNB-19 CNS, 7.39 µM in the experiment on T-47D breast, 12 µM with UACC-257 melanoma and 4.84 µM in the experiment with UACC-62 melanoma. Moreover, the TGI is 38.6 µM in the experiment on A498 renal; over 100 µM in the experiment with DU-145 prostate; over 100 µM with HOP-62 NSCLC; 35.2 µM in the experiment with MOLT-4 leukemia; over 100 µM in the experiment with NCI/ADR-RES ovarian; over 100 µM in the experiment on OVCAR-3 ovarian. The TGI is over 100 µM in the experiment with SNB-19 CNS, 99.7 µM with T-47D breast, 55.1 µM in the experiment on UACC-257 melanoma and 45.7 µM in the experiment on UACC-62 melanoma.
With `COc1cccc2nc3ccccc3nc12`, the TGI with A498 renal, with DU-145 prostate, in the experiment on HOP-62 NSCLC, in the experiment on MOLT-4 leukemia, in the experiment with NCI/ADR-RES ovarian and in the experiment with OVCAR-3 ovarian was over 100 µM throughout. Also, the TGI with SNB-19 CNS, in the experiment with T-47D breast, with UACC-257 melanoma and in the experiment with UACC-62 melanoma was over 100 µM throughout.
Regarding `O=C1c2cccnc2C(=O)c2c1c(C(=O)NCCn1ccnc1)c1ccccn21`, the GI50 with A498 renal is 5.43 µM; in the experiment with DU-145 prostate it was 3.09 µM; with HOP-62 NSCLC it was 1.28 µM; with MOLT-4 leukemia, 3.89 µM; in the experiment with NCI/ADR-RES ovarian it was 27.4 µM; with OVCAR-3 ovarian, 2.28 µM. Besides, the GI50 with SNB-19 CNS is 2.22 µM; in the experiment on T-47D breast it was 3.24 µM; in the experiment on UACC-257 melanoma it was 2.06 µM; in the experiment on UACC-62 melanoma, 1.84 µM. Besides, the TGI is 17.6 µM with A498 renal; 12.4 µM with DU-145 prostate; 11.3 µM in the experiment on HOP-62 NSCLC; 47.9 µM in the experiment with MOLT-4 leukemia; over 100 µM in the experiment on NCI/ADR-RES ovarian; 7.43 µM with OVCAR-3 ovarian. Further, the TGI in the experiment on SNB-19 CNS turned out to be 11.9 µM; in the experiment with T-47D breast, 11.6 µM; in the experiment on UACC-257 melanoma, 3.93 µM; in the experiment on UACC-62 melanoma it was 4.4 µM.
With `COc1cccc(C2=C(c3cn(C)c4cc(F)ccc34)C(=O)NC2=O)c1`, the GI50 is 5.96 µM with A498 renal; over 25 µM with DU-145 prostate; over 25 µM in the experiment on HOP-62 NSCLC; 11.1 µM in the experiment on MOLT-4 leukemia; 18.2 µM in the experiment on NCI/ADR-RES ovarian; over 18.7 µM in the experiment on OVCAR-3 ovarian. Further, the GI50 in the experiment on SNB-19 CNS was over 25 µM; with T-47D breast it was 15.3 µM; in the experiment on UACC-257 melanoma, over 25 µM; in the experiment with UACC-62 melanoma, 14.3 µM. Further, the TGI in the experiment with A498 renal, in the experiment on DU-145 prostate, in the experiment with HOP-62 NSCLC, with MOLT-4 leukemia, in the experiment on NCI/ADR-RES ovarian and with OVCAR-3 ovarian was over 25 µM each time. In addition, the TGI with SNB-19 CNS, in the experiment on T-47D breast, with UACC-257 melanoma and in the experiment with UACC-62 melanoma was over 25 µM in each case.
Turning to `CCCCCCCCCCCCCCCCCCOc1ccccc1CC(=O)OCC[N+](CC)(CC)CC`, the GI50 in the experiment with A498 renal is 2.13 µM; with DU-145 prostate it was 2.07 µM; in the experiment on HOP-62 NSCLC it was 1.76 µM; in the experiment with MOLT-4 leukemia, 1.26 µM; in the experiment with NCI/ADR-RES ovarian, 7.58 µM; with OVCAR-3 ovarian it was 1.73 µM. Further, the GI50 was 1.52 µM with SNB-19 CNS, 1.48 µM in the experiment with T-47D breast, 1.42 µM with UACC-257 melanoma and 1.16 µM in the experiment with UACC-62 melanoma. Besides, the TGI in the experiment on A498 renal came to 8.49 µM; in the experiment on DU-145 prostate, 7.99 µM; with HOP-62 NSCLC it was 8.32 µM; in the experiment on MOLT-4 leukemia it was 3.07 µM; with NCI/ADR-RES ovarian, 17.5 µM; in the experiment with OVCAR-3 ovarian, 6.33 µM. Besides, the TGI in the experiment with SNB-19 CNS amounted to 5.6 µM; with T-47D breast, 8.16 µM; in the experiment with UACC-257 melanoma, 5.1 µM; in the experiment on UACC-62 melanoma it was 3.37 µM.
`Cc1ccc(-c2nc3cc(Cl)c(Cl)cc3nc2C#N)cc1`: the GI50 was over 100 µM with A498 renal; over 100 µM in the experiment on DU-145 prostate; over 100 µM in the experiment on HOP-62 NSCLC; over 100 µM in the experiment on MOLT-4 leukemia; 81.2 µM in the experiment on NCI/ADR-RES ovarian; over 100 µM with OVCAR-3 ovarian. For the same molecule, the GI50 in the experiment on SNB-19 CNS, with T-47D breast, in the experiment on UACC-257 melanoma and with UACC-62 melanoma was over 100 µM in each case. Besides, the TGI with A498 renal, in the experiment with DU-145 prostate, with HOP-62 NSCLC, with MOLT-4 leukemia, in the experiment with NCI/ADR-RES ovarian and in the experiment with OVCAR-3 ovarian was over 100 µM throughout. In addition, the TGI in the experiment with SNB-19 CNS, with T-47D breast, with UACC-257 melanoma and with UACC-62 melanoma was over 100 µM in each case.
Take `CC(c1ccccc1)[C@@H](C(=O)Nc1ccc(I)cc1F)N1C(=O)N[C@H](c2ccc(OC[C@H](O)CO)cc2)C1=O` (some centres undefined): the GI50 was 0.541 µM in the experiment on A498 renal; 15.3 µM in the experiment with DU-145 prostate; 17 µM in the experiment with HOP-62 NSCLC; 12.5 µM with MOLT-4 leukemia; over 25 µM with NCI/ADR-RES ovarian; over 21.3 µM in the experiment on OVCAR-3 ovarian. Further, the GI50 with SNB-19 CNS was 6.63 µM; in the experiment with T-47D breast, 10.2 µM; in the experiment with UACC-257 melanoma, 0.052 µM; in the experiment with UACC-62 melanoma it was 0.0551 µM. Moreover, the TGI in the experiment with A498 renal was 2.3 µM; in the experiment with DU-145 prostate, over 25 µM; with HOP-62 NSCLC, over 25 µM; in the experiment with MOLT-4 leukemia, over 25 µM; with NCI/ADR-RES ovarian it was over 25 µM; in the experiment on OVCAR-3 ovarian it was over 25 µM. The TGI was over 25 µM in the experiment with SNB-19 CNS, over 25 µM in the experiment on T-47D breast, 0.892 µM with UACC-257 melanoma and 2.25 µM in the experiment on UACC-62 melanoma.
Take `NC1=NC(=O)/C(=C/c2ccc3ncccc3c2)S1`: the GI50 in the experiment with A498 renal is over 17.3 µM; with DU-145 prostate it was over 25 µM; in the experiment with HOP-62 NSCLC it was over 25 µM; with MOLT-4 leukemia it was over 25 µM; in the experiment with NCI/ADR-RES ovarian, over 25 µM; with OVCAR-3 ovarian, over 25 µM. For the same molecule, the GI50 is over 25 µM in the experiment on SNB-19 CNS, over 15.6 µM with T-47D breast, over 25 µM in the experiment with UACC-257 melanoma and over 25 µM with UACC-62 melanoma. Moreover, the TGI in the experiment on A498 renal, in the experiment on DU-145 prostate, in the experiment with HOP-62 NSCLC, with MOLT-4 leukemia, in the experiment with NCI/ADR-RES ovarian and in the experiment with OVCAR-3 ovarian was over 25 µM throughout. For the same molecule, the TGI with SNB-19 CNS, with T-47D breast, with UACC-257 melanoma and with UACC-62 melanoma was over 25 µM in each case.
As to `CCOC(=O)c1c(NC(=O)c2ccccc2)sc2c3c(ccc12)OCN(C)C3`, the GI50 in the experiment on A498 renal was 1.65 µM; in the experiment on DU-145 prostate, 1.67 µM; in the experiment with HOP-62 NSCLC, 1.77 µM; in the experiment on MOLT-4 leukemia, 2.09 µM; in the experiment with NCI/ADR-RES ovarian it was 1.59 µM; in the experiment on OVCAR-3 ovarian, 1.79 µM. Moreover, the GI50 is 1.56 µM with SNB-19 CNS, 1.76 µM with T-47D breast, 1.97 µM with UACC-257 melanoma and 1.7 µM with UACC-62 melanoma. Also, the TGI with A498 renal is 3.21 µM; in the experiment with DU-145 prostate, 3.12 µM; in the experiment with HOP-62 NSCLC it was 3.82 µM; in the experiment on MOLT-4 leukemia, 5.19 µM; with NCI/ADR-RES ovarian, 3.32 µM; with OVCAR-3 ovarian it was 3.26 µM. For the same molecule, the TGI worked out at 3.1 µM in the experiment on SNB-19 CNS, 3.78 µM in the experiment on T-47D breast, 3.85 µM in the experiment with UACC-257 melanoma and 3.27 µM in the experiment with UACC-62 melanoma.
Regarding `COc1ccc2nc3cc([N+](=O)[O-])ccc3c(NNc3ccccc3)c2c1`, the TGI with A498 renal was 13.2 µM; in the experiment with DU-145 prostate, 77.8 µM and > 100 µM; in the experiment with HOP-62 NSCLC, 29.7 µM and > 100 µM; in the experiment on MOLT-4 leukemia it was 65.8 µM and 74.4 µM; in the experiment with NCI/ADR-RES ovarian it was 55.1 µM and > 100 µM; in the experiment with OVCAR-3 ovarian, 21.9 µM and > 100 µM. Also, the TGI in the experiment with SNB-19 CNS is 57.1 µM and > 100 µM; with T-47D breast it was 35.7 µM and > 100 µM; with UACC-257 melanoma, 51.5 µM and > 100 µM; in the experiment on UACC-62 melanoma, 22.8 µM and 25.1 µM. In addition, the GI50 in the experiment with DU-145 prostate is 19.7 µM; in the experiment with HOP-62 NSCLC, 13.1 µM; in the experiment with MOLT-4 leukemia, 12.5 µM; with NCI/ADR-RES ovarian, 12.8 µM; in the experiment with OVCAR-3 ovarian, 10.2 µM; with SNB-19 CNS it was 18.2 µM. In addition, the GI50 in the experiment on T-47D breast is 10.1 µM; with UACC-257 melanoma, 17.3 µM; in the experiment on UACC-62 melanoma it was 5.93 µM.
In the case of `O=c1ccc(=O)n(-c2ccccc2)[nH]1`, the TGI in the experiment with A498 renal, in the experiment on DU-145 prostate, in the experiment with HOP-62 NSCLC, with MOLT-4 leukemia, in the experiment on NCI/ADR-RES ovarian and with OVCAR-3 ovarian was over 100 µM throughout. Also, the TGI in the experiment on SNB-19 CNS, with T-47D breast, with UACC-257 melanoma and in the experiment with UACC-62 melanoma was over 100 µM each time.
For the molecule `COc1ccc(C(=O)O[C@H]2[C@H](O[C@H]3[C@@H](O)COC(O[C@H]4C[C@H]5[C@@H]6CC=C7C[C@@H](O)CC[C@]7(C)[C@H]6CC[C@]5(C)[C@H]4[C@H](C)C(=O)CCC(C)C)[C@@H]3OC(C)=O)OC[C@@H](O)[C@@H]2O)c(C)c1` (some centres undefined), the GI50 is under 0.01 µM in the experiment on A498 renal; 1.26 µM in the experiment on DU-145 prostate; under 0.01 µM in the experiment on HOP-62 NSCLC; under 0.01 µM in the experiment on MOLT-4 leukemia; 8.48 µM with NCI/ADR-RES ovarian; 11.1 µM in the experiment with OVCAR-3 ovarian. In addition, the GI50 with SNB-19 CNS was under 0.01 µM; in the experiment on T-47D breast, 0.0133 µM; in the experiment with UACC-257 melanoma, 0.0196 µM; in the experiment with UACC-62 melanoma it was under 0.01 µM. Moreover, the TGI in the experiment with A498 renal was under 0.01 µM; in the experiment with DU-145 prostate, 36.4 µM; in the experiment on HOP-62 NSCLC it was 7.51 µM; in the experiment on MOLT-4 leukemia it was 11.2 µM; with NCI/ADR-RES ovarian, 86.1 µM; with OVCAR-3 ovarian, 28.9 µM. Further, the TGI in the experiment on SNB-19 CNS was 10.3 µM; in the experiment with T-47D breast, 19.1 µM; in the experiment with UACC-257 melanoma, 0.0621 µM; in the experiment on UACC-62 melanoma, under 0.01 µM.

The record behind these values is PubChem BioAssay (NCI).
